Read-outs that look alike come from different tables or passages of the source.
Target: full-length human PRMT8 isoform 1 (Homo sapiens, UniProt Q9NR22)
Assay: PRMT8 Biochemical Assay (3H-SAM Flashplate, peptide substrate)
Conditions: read-out: Biochemical IC50 PRMT8
Description: General Materials. S-adenosylmethionine (SAM), S-adenosylhomocysteine (SAH), bicine, Tween20, dimethylsulfoxide (DMSO), bovine skin gelatin (BSG), isopropyl-β-D-thiogalactopyranoside (IPTG), and Tris(2-carboxyethyl)phosphine hydrochloride solution (TCEP) were purchased from Sigma-Aldrich at the highest level of purity possible. ^3H-SAM was purchase from American Radiolabeled Chemicals with a specific activity of 80 Ci/mmol. 384-well streptavidin Flashplates were purchased from PerkinElmer.
Substrates. Peptide representative of human histone H4 residues 31-45 was synthesized with an N-terminal linker-affinity tag motif and a C-terminal amide cap by 21st Century Biochemicals. The peptide was purified by high-performance liquid chromatography (HPLC) to greater than 95% purity and confirmed by liquid chromatography mass spectrometry (LC-MS). The sequence was Biot-Ahx-[…]-amide (SEQ ID NO.:8).
The resulting construct encodes an N-terminal GST tag and a thrombin cleavage sequence ([…] […] […] […] SPEF) (SEQ ID NO.:9) fused directly to Met 1 of PRMT8.
Protein Expression. E. coli (BL21(DE3) Gold, Stratagene) made competent by the CaCl2) method were transformed with the PRMT8 construct and ampicillin selection. Protein over-expression was accomplished by growing the PRMT8 expressing E. coli clone and inducing expression with 0.3 mM IPTG at 16° C. The culture was grown for 12 hours, harvested by centrifugation, and stored at −80° C. for purification.
Protein Purification. […] GST-tagged PRMT8 was eluted with 50 mM Tris, 2 mM glutathione, pH 7.8. Pooled fractions were cleaved by thrombin (10U) and dialysed in buffer A. GST was removed by reloading the cleaved protein sample onto glutathione sepharose column and PRMT8 was collected in the flow-through fractions. PRMT8 was purified further by ceramic hydroxyapatite chromatography. The column was washed with 50 mM phosphate buffer, 100 mM NaCl, 5% glycerol, 5 mM β-mercaptoethanol, pH 7.8 and PRMT8 was eluted by 100 mM phosphate in the same buffer. Protein was concentrated and buffer was exchanged to 50 mM Tris, 300 mM NaCl, 10% glycerol, 5 mM β-mercaptoethanol, pH 7.8 by ultrafiltration. The purity of recovered protein was 89%.
General Procedure for PRMT8 Enzyme Assays on Peptide Substrates. The assays were all performed in a buffer consisting of 20 mM Bicine (pH=7.6), 1 mM TCEP, 0.005% BSG, and 0.002% Tween 20, prepared on the day of use. Compounds in 100% DMSO (1 ul) were spotted into a polypropylene 384-well V-bottom plates (Greiner) using a Platemate Plus outfitted with a 384-channel head (Thermo Scientific). DMSO (1 ul) was added to Columns 11, 12, 23, 24, rows A-H for the maximum signal control and 1 ul of SAH, a known product and inhibitor of PRMT8, was added to columns 11, 12, 23, 24, rows I-P for the minimum signal control. A cocktail (40 ul) containing the PRMT8 enzyme was added by Multidrop Combi (Thermo-Fisher). The compounds were allowed to incubate with PRMT8 for 30 min at room temperature, then a cocktail (10 ul) containing ^3H-SAM and peptide was added to initiate the reaction (final volume=51 ul). The final concentrations of the components were as follows: PRMT8 was 1.5 nM, ^3H-SAM was 50 nM, non-radiolabeled SAM was 550 nM, peptide was 150 nM, SAH in the minimum signal control wells was 1 mM, and the DMSO concentration was 2%. The assays were stopped by the addition of non-radiolabeled SAM (10 ul) to a final concentration of 400 uM, which dilutes the ^3H-SAM to a level where its incorporation into the peptide substrate is no longer detectable. 50 ul of the reaction in the 384-well polypropylene plate was then transferred to a 384-well Flashplate and the biotinylated peptides were allowed to bind to the streptavidin surface for at least 1 hour before being washed once with 0.1% Tween20 in a Biotek ELx405 plate washer. […]

[1] = single experiment or average of multiple experiments

Sequence of full-length human PRMT8 isoform 1 (Q9NR22 whole entry, canonical isoform): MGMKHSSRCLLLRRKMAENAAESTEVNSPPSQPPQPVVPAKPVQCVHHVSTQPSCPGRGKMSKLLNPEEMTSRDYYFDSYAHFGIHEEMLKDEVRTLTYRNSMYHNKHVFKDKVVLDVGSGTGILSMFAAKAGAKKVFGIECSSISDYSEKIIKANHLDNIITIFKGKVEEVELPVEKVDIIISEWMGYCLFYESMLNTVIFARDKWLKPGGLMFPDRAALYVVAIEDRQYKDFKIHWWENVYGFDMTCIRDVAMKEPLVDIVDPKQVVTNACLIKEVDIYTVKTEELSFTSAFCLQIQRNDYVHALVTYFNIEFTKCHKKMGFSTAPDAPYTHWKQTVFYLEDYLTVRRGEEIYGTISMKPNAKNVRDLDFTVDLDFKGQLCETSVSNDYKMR

IC50 [nM]	IC50 [1] [nM]	SMILES
< 100	29.6	CNCCN(C)Cc1c[nH]nc1C1CCC2(CC1)NC(=O)NC2=O (stereo not drawn) [Compound 175]
< 100	28.6	CNCCN(C)Cc1c[nH]nc1C1CCC2(CCNC2=O)CC1 (stereo not drawn) [Compound 176]
101 to 1000	150	CNCCN(C)Cc1c[nH]nc1C1CCC2(CC1)OCCO2 [Compound 177]
< 100	20.5	CNCCN(C)Cc1c[nH]nc1C1CCC2(CCOCC2)CC1 [Compound 178]
< 100	57.3	CNCCN(C)Cc1c[nH]nc1C1CC(C)OC(C)C1 (stereo not drawn) [Compound 179]
< 100	32.3	CNCCN(C)Cc1c[nH]nc1C1CCC(O)C2(CCCC2)C1 (stereo not drawn) [Compound 182, 9-[4-({methyl[2-(methylamino)ethyl]amino}methyl)-1H-pyrazol-3-yl]spiro[4.5]decan-6-ol]
< 100	24.4	CNCCN(C)Cc1c[nH]nc1C1CCC(C)(C)C(O)C1 (stereo not drawn) [Compound 185, 2,2-dimethyl-5-[4-({methyl[2-(methylamino)ethyl]amino}methyl)-1H-pyrazol-3-yl]cyclohexan-1-ol]
< 100	89.6	CNCCN(C)Cc1c[nH]nc1[C@H]1CC[C@H](OCCOc2ccc(OC)cc2)CC1 [Compound 186]
101 to 1000	185	CNCCN(C)Cc1c[nH]nc1[C@H]1CC[C@H](OCCOc2ccccc2)CC1 [Compound 187]

Source: patent US11512053B2, “Arginine methyltransferase inhibitors and uses thereof” (priority 2013, dated 2022)
